From BindingDB's records for doi:10.1016/j.chembiol.2012.04.012 (Albert Einstein College of Medicine, 2012)

Biological target: T1, Hypoxanthine-guanine-xanthine phosphoribosyltransferase (Plasmodium falciparum (isolate FCR-3 / Gambia), UniProt P20035)
T1 sequence (P20035 whole entry): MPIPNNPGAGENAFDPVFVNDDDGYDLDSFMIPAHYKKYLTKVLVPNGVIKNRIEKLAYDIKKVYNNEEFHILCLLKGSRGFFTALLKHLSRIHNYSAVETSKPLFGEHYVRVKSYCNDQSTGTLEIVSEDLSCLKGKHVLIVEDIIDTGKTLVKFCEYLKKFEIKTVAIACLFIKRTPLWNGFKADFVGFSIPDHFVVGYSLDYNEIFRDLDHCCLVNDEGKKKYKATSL
Assay: Inhbition Assay
Conditions: pH 7.6; 37 °C
Procedure: PfHGXPRT activity was measured using spectrophotometric assay observing the conversion of xanthine and 5-phospho-alpha-D-ribose-1-pyrophosphate to xanthosine-5'-monophosphate and inorganic pyrophosphate (PPi) at 247nm or the conversion of guanine and PRPP to guanosine-5'-monophosphate and PPi on a Varian Cary 100 spectrophotometer.

## O=c1[nH]cnc2c(NCCCP(=O)(O)O)c[nH]c12 [HGXPRT Inhibitor, 2]
  Ki: 10.6 nM

## O=c1[nH]cnc2c(N[C@H](CO)CCP(=O)(O)O)c[nH]c12 [HGXPRT Inhibitor, 3]
  Ki: 0.65 nM
